Test results: PubChem BioAssay (NCI)
Several values for one entry are separate records, joined by “and”; a condition that tells them apart may be missing. Equal values may be shown once.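 Step 1: Grow cells in 96-well plates. Step 2: Expose to compound for 48 hours at 5 concentrations. Step 3: Interpolate endpoints linearly; if unreached, use highest concentration. GI50 = concentration required for 50% inhibition of growth. At the TGI there is no net growth.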

Assays:
Assay in all cases: NCI tumour cell line growth inhibition, 48 h
MDA-N = system: MDA-N
LXFL 529 NSCLC = system: LXFL 529 NSCLC
XF 498 CNS = system: XF 498 CNS
DMS 114 small cell lung = system: DMS 114 small cell lung
SNB-78 CNS = system: SNB-78 CNS
M19-MEL melanoma = system: M19-MEL melanoma
KM20L2 colon = system: KM20L2 colon
RXF-631 renal = system: RXF-631 renal
HOP-18 NSCLC = system: HOP-18 NSCLC
P388/ADR leukemia = system: P388/ADR leukemia
P388 leukemia = system: P388 leukemia
SN12K1 renal = system: SN12K1 renal

| SMILES | TGI (MDA-N) | TGI (LXFL 529 NSCLC) | TGI (XF 498 CNS) | TGI (DMS 114 small cell lung) | TGI (SNB-78 CNS) | TGI (M19-MEL melanoma) | TGI (KM20L2 colon) | TGI (RXF-631 renal) | TGI (HOP-18 NSCLC) | other results |
| --- | --- | --- | --- | --- | --- | --- | --- | --- | --- | --- |
| O=C(O)C1OC1(c1cccc(Cl)c1)c1ccccc1Cl (stereo not drawn) | 65.6 µM |  |  |  |  |  |  |  |  |  |
| CCOC1=C2C(=O)OC(=O)C2C2CCCCC2=C1 (stereo not drawn) |  | > 100 µM | > 100 µM | > 100 µM | > 100 µM | > 100 µM |  |  |  |  |
| Clc1ccc(N=Nc2nc3ccccc3nc2N=Nc2ccc(Cl)cc2Cl)c(Cl)c1 |  | > 100 µM | > 100 µM | > 100 µM | > 100 µM | > 100 µM | > 100 µM |  |  |  |
| COc1cc2ccccc2oc1=O | > 100 µM |  |  |  |  |  |  |  |  |  |
| COc1ccc(C2CC(C)(O)Oc3cc4c(cc32)OCO4)cc1 (stereo not drawn) | 36.4 µM |  |  |  |  |  |  |  |  |  |
| Cc1cc2c(C)nn(Cc3ccccc3)c2c(C(N)=O)c1C |  | > 100 µM | > 100 µM | > 100 µM | > 100 µM | > 100 µM | > 100 µM |  |  |  |
| c1ccc(C(c2ccccc2)c2cccnc2)cc1 |  |  |  | > 100 µM | > 100 µM | > 100 µM | > 100 µM | > 100 µM | > 100 µM |  |
| Cc1ccc(SSc2ccc(C)cc2C(=O)O)c(C(=O)O)c1 |  | > 100 µM |  |  | > 100 µM | > 100 µM | > 100 µM | > 100 µM |  |  |
| COC(=O)/C(=N\NC(=O)C[N+](C)(C)C)C(C(=O)OC)C(=O)C(=O)Nc1ccccc1C(N)=O (stereo not drawn) |  | > 100 µM |  |  | > 100 µM | > 100 µM | > 100 µM |  | > 100 µM |  |
| COc1cc2oc3cc(=O)cc4oc(-c5ccccc5)cc(c2c2c1CCC(c1ccccc1)O2)c43 (stereo not drawn) | > 100 µM |  |  |  |  |  |  |  |  |  |
| C1COCCN1.C1COCCN1.NC1CCCCC1N.[Cl-].[Pt+2] (stereo not drawn) |  | > 100 µM |  |  | > 100 µM | > 100 µM | > 100 µM |  | > 100 µM | GI50 (LXFL 529 NSCLC): > 100 µM; GI50 (KM20L2 colon): > 100 µM; GI50 (HOP-18 NSCLC): > 100 µM; GI50 (SNB-78 CNS): > 100 µM; GI50 (M19-MEL melanoma): > 100 µM |
| c1cc2n(n1)CCN2 | > 10000 µM |  | 6960 µM | > 8170 µM | > 8740 µM | > 10000 µM | > 10000 µM |  | > 10000 µM | TGI (P388/ADR leukemia): 4830 µM; TGI (P388 leukemia): 2770 µM; TGI (SN12K1 renal): 5980 µM |
| CN1c2ccccc2N(C(=O)c2ccc(Cl)cc2)C(CC(=O)O)c2cccn21 (stereo not drawn) |  | > 100 µM | > 100 µM | > 100 µM | > 100 µM | > 100 µM | > 100 µM |  |  |  |
| Cc1oc2c(C)c3oc(=O)cc(C)c3cc2c1CN1C(=O)C2OCCOCCOCCOCCOCCO[C@H]2C1=O (stereo partly drawn) |  | > 100 µM |  | > 100 µM | > 100 µM | > 100 µM | > 100 µM | 74.2 µM | > 100 µM |  |
| CC(=O)C(=Cc1ccc(C=C(C(C)=O)C(C)=O)cc1)C(C)=O | 5.94 µM |  |  |  |  |  |  |  |  |  |
| CC1OC(OC2C[C@](O)(C(=O)CF)Cc3c(O)c4c(c(O)c32)C(=O)c2ccccc2C4=O)CC(N)C1O (stereo partly drawn) | 0.333 µM | 1.27 µM | 0.389 µM | 0.142 µM | 3.53 µM | 0.248 µM | 0.353 µM |  |  |  |
| CN(C)CCNC(=O)c1cc([N+](=O)[O-])cc2c1Oc1ccccc1O2 | > 100 µM |  |  |  |  |  |  |  |  |  |
| O=[N+]([O-])c1ccc2c(c1)Cc1cc(N=Cc3ccc4c(c3)OCO4)ccc1-2 | > 100 µM |  |  |  |  |  |  |  |  |  |
| CCN(CC)CCOc1ccc(CCc2cc(OC)c(OC)c(OC)c2)cc1 |  | > 100 µM | 57.7 µM | 73.8 µM | > 100 µM | 53.8 µM | > 100 µM | > 100 µM | > 100 µM |  |
| N.N.N.N.N.[Cl-].[Co+3].c1ccc(-c2nn[n-]n2)cc1 |  | > 100 µM |  |  | > 100 µM |  | > 100 µM |  | > 100 µM | GI50 (LXFL 529 NSCLC): > 100 µM; GI50 (KM20L2 colon): > 100 µM; GI50 (HOP-18 NSCLC): 93.1 µM; GI50 (SNB-78 CNS): > 100 µM |
| OCC(O)C(Cl)CCl (stereo not drawn) | > 100 µM |  |  |  |  |  |  |  |  |  |

| SMILES | TGI (MDA-N) | TGI (LXFL 529 NSCLC) | TGI (XF 498 CNS) | TGI (DMS 114 small cell lung) | TGI (SNB-78 CNS) | TGI (M19-MEL melanoma) | TGI (KM20L2 colon) | TGI (RXF-631 renal) | TGI (HOP-18 NSCLC) | other results |
| --- | --- | --- | --- | --- | --- | --- | --- | --- | --- | --- |
| CC(=O)NNc1nc(C)c(C(=O)/C=C/c2ccccc2Cl)s1 |  |  |  | > 100 µM | > 100 µM | > 100 µM | > 100 µM | > 100 µM | > 100 µM |  |
| COC(=O)C(C#CCCCCC#CC(NC(=O)OCc1ccccc1)(C(=O)OC)C(F)(F)F)(NC(=O)OCc1ccccc1)C(F)(F)F (stereo not drawn) |  | > 100 µM |  | > 100 µM | > 100 µM | > 100 µM | > 100 µM | > 100 µM | > 100 µM |  |
| c1ccc(CN2CCC3(CC2)SSC2(CCN(Cc4ccccc4)CC2)S3)cc1 | > 100 µM |  |  |  |  |  |  |  |  |  |
| N#CCCN(CCCN(CCCN(C(=O)Nc1ccccc1)c1ccccc1)C(=O)Nc1ccccc1)C(=O)Nc1ccccc1 | > 100 µM |  |  |  |  |  |  |  |  | GI50 (MDA-N): > 100 µM |
| COc1c(O)cc2oc(-c3ccc(O)cc3)cc(=O)c2c1O | > 100 µM |  |  |  |  |  |  |  |  |  |
| O=CN/C=C/c1cccc(O)c1 | > 85 µM | > 100 µM | > 100 µM | > 100 µM | > 100 µM | > 100 µM | > 100 µM |  | > 100 µM |  |
| Cc1ccc([N+](=O)[O-])cc1NC(=O)/C(=N/NC(=S)NN)C1SC(=S)NC1=O (stereo not drawn) |  | > 100 µM | > 100 µM | > 100 µM | > 100 µM |  | > 100 µM |  | > 100 µM |  |
| COc1cc([C@@H]2c3cc4c(cc3[C@@H](OC(=O)c3ccc(N)cc3)C3COC(=O)[C@@H]32)OCO4)cc(OC)c1O (stereo partly drawn) |  | > 95 µM |  |  | > 95 µM | > 95 µM | 3.57 µM | 42 µM | > 95 µM |  |
| O=C(CC(=O)C1=CNc2ccccc2S1)C(=O)Nc1ccc(Cl)cc1 |  | > 50 µM | > 50 µM | > 50 µM | > 50 µM | > 50 µM | > 50 µM | > 50 µM |  |  |
| C1=CC=C2NCCCCCCCNC3=CC=CC=CC3=NCCCCCCCN=C2C=C1 |  | > 100 µM | > 100 µM |  |  | > 100 µM | > 100 µM | 25.7 µM |  |  |
| COC1OC(CBr)C(OC(=O)c2ccccc2)C(O)C1Br (stereo not drawn) |  | > 100 µM | > 10 µM |  | > 100 µM | > 100 µM | > 100 µM |  | > 100 µM |  |
| COC1/C=C/C(C)C(C(C)C(OC)C(C)CCC(=O)C(C)C(C/C=C/N(C)C=O)OC)OC(=O)/C=C/C=C(\C)CC(OC)CC2=CC(=O)O[C@H](C2)C(C)C(OC)CC(OC)/C=C/C(C)C(OC)C1 (stereo partly drawn) | 1.11 µM |  |  |  |  |  |  |  |  | GI50 (MDA-N): 0.0472 µM |
| C[C@]12CCC(=O)C=C1CC[C@@H]1C2CC[C@]2(C)Nc3c(cnn3-c3ccccc3)CC12 (stereo partly drawn) |  | > 100 µM | > 100 µM | > 100 µM | > 100 µM | > 100 µM | > 100 µM | > 100 µM |  |  |
| O=C(O/C(=C(/N=Nc1ccccc1)c1ccccc1)c1ccccc1)c1ccccc1 |  | > 100 µM | > 100 µM | > 100 µM | > 100 µM |  | > 100 µM | > 100 µM | > 100 µM |  |
| O=C(NC(=O)c1cn(CCN(CCO)C(=O)NCCCCCCNC(=O)N(CCO)CCn2cc(C(=O)NC(=O)OCc3ccccc3)c(=O)[nH]c2=O)c(=O)[nH]c1=O)OCc1ccccc1 |  |  | > 100 µM | > 100 µM | > 100 µM | > 100 µM | > 100 µM | > 100 µM | > 100 µM |  |
| COc1ccc2c(c1)[n+]([O-])c(-c1ccc(OC)c(OC)c1)c(N)[n+]2[O-] |  | > 100 µM | > 100 µM | > 100 µM | > 100 µM | > 100 µM | > 100 µM |  | > 100 µM |  |
| O=C1C2C3C=C4c5ccccc5N(c5ccccc5)C4(C2C(=O)N1c1ccc(Cl)cc1)[C@H]1C(=O)N(c2ccc(Cl)cc2)C(=O)[C@@H]31 (stereo partly drawn) |  | > 100 µM | > 100 µM | > 100 µM | > 100 µM | > 100 µM | > 100 µM | > 100 µM | > 100 µM |  |
| C#CC1(O)C(COP(=O)(O)OC(COCCCCCCCCCCCCCCCCCC)COP(=O)(O)OCC2OC(n3cc(F)c(=O)[nH]c3=O)CC2O)OC(n2ccc(N)nc2=O)C1O (stereo not drawn) | 12.4 µM and 13.7 µM |  |  |  |  |  |  |  |  |  |
| COc1ccc2c(=O)cc(-c3ccncc3)oc2c1OC | 98.9 µM |  |  |  |  |  |  |  |  |  |
| COc1cc(NC(C)CCCN)c2ncccc2c1 (stereo not drawn) | > 82.1 µM | > 100 µM | 73.2 µM | > 89 µM | > 100 µM | > 100 µM | > 100 µM | > 100 µM | > 100 µM |  |
| COC(=O)c1ccccc1OCc1cc(=O)oc2ccc(C)cc12 | > 100 µM | > 100 µM | 90.4 µM | > 100 µM |  | > 100 µM | > 100 µM | > 100 µM |  |  |
